Experimental data: patent US20260028365A1 (BIOGEN MA INC., priority 2022, published 2026)

Legend:
[1] = target: JH2 domain of human Tyk2 (Homo sapiens (Human), UniProt P29597); assay: JH2 Biochemical Assay (TR-FRET probe displacement); format: binding; conditions: TR-FRET probe displacement, JH2 domain
[2] = target: Tyk2 (Homo sapiens (Human), UniProt P29597); assay: pSTAT4 Cell Assay (MSD, NK92 cells); format: cell-based
Sequence of Tyk2 (P29597 whole entry): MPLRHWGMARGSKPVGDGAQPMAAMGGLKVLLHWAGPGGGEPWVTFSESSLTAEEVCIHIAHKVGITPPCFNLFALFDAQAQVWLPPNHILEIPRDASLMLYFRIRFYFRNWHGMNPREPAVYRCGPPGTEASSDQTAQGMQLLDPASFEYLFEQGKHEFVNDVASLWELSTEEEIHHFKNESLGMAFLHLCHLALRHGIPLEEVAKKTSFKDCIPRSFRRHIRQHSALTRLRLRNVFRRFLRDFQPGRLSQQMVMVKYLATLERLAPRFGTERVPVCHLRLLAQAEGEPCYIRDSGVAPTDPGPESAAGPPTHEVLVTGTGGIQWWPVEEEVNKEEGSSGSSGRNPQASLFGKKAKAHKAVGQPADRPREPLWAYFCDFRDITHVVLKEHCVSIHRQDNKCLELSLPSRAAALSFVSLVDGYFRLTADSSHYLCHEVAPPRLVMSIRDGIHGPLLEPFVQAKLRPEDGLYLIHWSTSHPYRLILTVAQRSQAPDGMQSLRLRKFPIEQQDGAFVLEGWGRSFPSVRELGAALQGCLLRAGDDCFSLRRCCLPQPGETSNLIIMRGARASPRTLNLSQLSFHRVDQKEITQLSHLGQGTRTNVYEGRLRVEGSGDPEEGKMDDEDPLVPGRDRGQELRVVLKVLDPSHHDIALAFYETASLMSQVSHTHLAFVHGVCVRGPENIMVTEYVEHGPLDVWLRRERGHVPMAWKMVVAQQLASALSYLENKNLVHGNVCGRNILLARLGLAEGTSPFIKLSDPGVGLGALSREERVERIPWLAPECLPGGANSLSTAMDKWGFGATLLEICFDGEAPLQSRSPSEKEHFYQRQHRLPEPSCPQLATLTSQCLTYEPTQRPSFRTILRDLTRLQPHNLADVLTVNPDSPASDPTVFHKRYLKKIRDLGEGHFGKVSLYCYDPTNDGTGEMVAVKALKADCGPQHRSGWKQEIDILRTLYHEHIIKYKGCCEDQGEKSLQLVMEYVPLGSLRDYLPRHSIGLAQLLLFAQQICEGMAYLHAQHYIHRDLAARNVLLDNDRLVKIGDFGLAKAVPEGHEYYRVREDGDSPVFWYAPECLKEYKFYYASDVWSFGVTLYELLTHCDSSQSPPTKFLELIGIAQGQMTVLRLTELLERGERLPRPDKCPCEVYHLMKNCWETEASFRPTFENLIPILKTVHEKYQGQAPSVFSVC

Sequence of JH2 domain of human Tyk2 (P29597 575-876): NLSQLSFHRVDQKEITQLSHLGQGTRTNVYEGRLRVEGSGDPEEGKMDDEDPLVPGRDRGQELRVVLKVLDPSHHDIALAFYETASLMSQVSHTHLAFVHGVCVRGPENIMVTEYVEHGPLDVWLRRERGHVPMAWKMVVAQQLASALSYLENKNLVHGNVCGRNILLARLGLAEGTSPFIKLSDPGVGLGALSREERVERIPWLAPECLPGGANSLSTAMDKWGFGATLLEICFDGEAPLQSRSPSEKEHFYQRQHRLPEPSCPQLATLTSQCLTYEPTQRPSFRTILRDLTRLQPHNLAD

Row | Structure (SMILES) | IC50 [1] [nM] | IC50 [2] [nM]
1 | CCc1cc(Nc2cc(NC(C)=O)ncc2-c2cnc(NC)cn2)nc(C(C)(F)F)n1 [Example 860, N-(4-((2-(1,1-difluoroethyl)-6-ethylpyrimidin-4-yl)amino)-5-(5-(methylamino)pyrazin-2-yl)pyridin-2-yl)acetamide] | 100 to 1000 | ≥ 1000
2 | CCc1cc(Nc2cc(NC(C)=O)ncc2-c2ccc(N(C)C)nn2)nc(C(C)(F)F)n1 [Example 862, N-(4-((2-(1,1-difluoroethyl)-6-ethylpyrimidin-4-yl)amino)-5-(6-(dimethylamino)pyridazin-3-yl)pyridin-2-yl)acetamide] | ≤ 10 | ≤ 10
3 | CCc1cc(Nc2cc(NC(C)=O)ncc2-c2ccc(N3CCOCC3)nn2)nc(C(C)(F)F)n1 [Example 863, N-(4-((2-(1,1-difluoroethyl)-6-ethylpyrimidin-4-yl)amino)-5-(6-morpholinopyridazin-3-yl)pyridin-2-yl)acetamide] | ≤ 10 | ≤ 10
4 | CCc1cc(Nc2cc(NC(C)=O)ncc2-c2cnc(C#N)cn2)nc(C(C)(F)F)n1 [Example 864, N-(5-(5-cyanopyrazin-2-yl)-4-((2-(1,1-difluoroethyl)-6-ethylpyrimidin-4-yl)amino)pyridin-2-yl)acetamide] | ≤ 10 | 10 to 100
5 | CCc1cc(Nc2cc(NC(C)=O)ncc2-c2ccc(=O)n(C)n2)nc(C(C)(F)F)n1 [Example 865, N-(4-((2-(1,1-difluoroethyl)-6-ethylpyrimidin-4-yl)amino)-5-(1-methyl-6-oxo-1,6-dihydropyridazin-3-yl)pyridin-2-yl)acetamide] | ≤ 10 | 10 to 100
6 | COCCN(C)c1cnc(-c2cnc(NC(C)=O)cc2Nc2ccnc(C(C)(F)F)n2)cn1 [Example 866, N-(4-((2-(1,1-difluoroethyl)pyrimidin-4-yl)amino)-5-(5-((2-methoxyethyl)(methyl)amino)pyrazin-2-yl)pyridin-2-yl)acetamide] | ≤ 10 | 10 to 100
7 | COC1CCN(c2cnc(-c3cnc(NC(C)=O)cc3Nc3ccnc(C(C)(F)F)n3)cn2)C1 (stereo not shown) [Example 867, N-(4-((2-(1,1-difluoroethyl)pyrimidin-4-yl)amino)-5-(5-(3-methoxypyrrolidin-1-yl)pyrazin-2-yl)pyridin-2-yl)acetamide] | ≤ 10 | 10 to 100
8 | COC1(C)CN(c2cnc(-c3cnc(NC(C)=O)cc3Nc3ccnc(C(C)(F)F)n3)cn2)C1 [Example 868, N-(4-((2-(1,1-difluoroethyl)pyrimidin-4-yl)amino)-5-(5-(3-methoxy-3-methylazetidin-1-yl)pyrazin-2-yl)pyridin-2-yl)acetamide] | ≤ 10 | 10 to 100
9 | CC(=O)Nc1cc(Nc2ccnc(C(C)(F)F)n2)c(-c2cnc(N3CCC4(COC4)C3)cn2)cn1 [Example 869, N-(5-(5-(2-oxa-6-azaspiro[3.4]octan-6-yl)pyrazin-2-yl)-4-((2-(1,1-difluoroethyl)pyrimidin-4-yl)amino)pyridin-2-yl)acetamide] | 10 to 100 | 100 to 1000
10 | CC(=O)Nc1cc(Nc2ccnc(C(C)(F)F)n2)c(-c2cnc(N3C[C@@H]4C[C@H]3CO4)cn2)cn1 [Example 870, N-(5-(5-((1S,4S)-2-oxa-5-azabicyclo[2.2.1]heptan-5-yl)pyrazin-2-yl)-4-((2-(1,1-difluoroethyl)pyrimidin-4-yl)amino)pyridin-2-yl)acetamide] | ≤ 10 | 10 to 100
11 | CC(=O)Nc1cc(Nc2ccnc(C(C)(F)F)n2)c(-c2cnc(N3C[C@H]4C[C@@H]3CO4)cn2)cn1 [Example 871, N-(5-(5-((1R,4R)-2-oxa-5-azabicyclo[2.2.1]heptan-5-yl)pyrazin-2-yl)-4-((2-(1,1-difluoroethyl)pyrimidin-4-yl)amino)pyridin-2-yl)acetamide] | ≤ 10 | 10 to 100
